Measured values taken from ChEMBL document CHEMBL1201862, “PubChem BioAssay data set” (2004).
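Assay format: 96-well plates, 48-hour exposure. GI50 is the concentration that inhibits growth by half.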 Active and inactive are the calls of the source. Rule as the data show it: active = GI50 up to about 1.1 µM and inactive = higher. Non-standard residues stand in square brackets, D forms with d. Residues, ends and D or L forms follow the SMILES beside them. *: point of attachment. Ac5c = NC1(C(=O)O)CCCC1; Boc = CC(C)(C)OC(=O)*; tBu = CC(C)(C)*

Assays:
Test in all cases: growth of human tumour cells (NCI), 48 h
NCI-H226 = system: NCI-H226
TK-10 = system: TK-10
MDA-N = system: MDA-N
SN12C = system: SN12C
786-0 = system: 786-0
U-251 = system: U-251
SK-MEL-2 = system: SK-MEL-2
T47D = system: T47D
SNB-19 = system: SNB-19
SF-539 = system: SF-539
UO-31 = system: UO-31
HCC 2998 = system: HCC 2998
ACHN = system: ACHN
UACC-62 = system: UACC-62
MDA-MB-435 = system: MDA-MB-435
MOLT-4 = system: MOLT-4
Hs-578T = system: Hs-578T
SW-620 = system: SW-620
EKVX = system: EKVX

Measured: GI50

CN1CCN(c2ccc3[nH]c(-c4ccc5[nH]c(CCCc6ccc(N(CCCl)CCCl)cc6)nc5c4)nc3c2)CC1
inactive: NCI-H226 > 100 µM | TK-10 > 100 µM | MDA-N > 100 µM | SN12C > 100 µM | 786-0 > 100 µM | U-251 > 100 µM | SK-MEL-2 > 100 µM | T47D > 100 µM | SNB-19 > 100 µM | SF-539 > 100 µM | UO-31 > 100 µM | HCC 2998 > 100 µM | ACHN > 100 µM | UACC-62 84.5 µM | MDA-MB-435 > 100 µM | MOLT-4 77.8 µM | Hs-578T 2.09 µM | SW-620 > 100 µM

CCCCCCCCCCCCCCCC(=O)OCC(O)C1OC(=O)C(O)=C1O (centres undefined)
inactive: NCI-H226 22.9 µM | MDA-N 30.8 µM | SN12C 29.9 µM | 786-0 19.6 µM | EKVX > 100 µM | U-251 28.1 µM | SK-MEL-2 34.1 µM | T47D 97.9 µM | SNB-19 30.1 µM | SF-539 27.4 µM | UO-31 28.9 µM | HCC 2998 > 100 µM | ACHN 34 µM | UACC-62 27.5 µM | MDA-MB-435 21 µM | MOLT-4 62.7 µM | SW-620 37.9 µM

CC(OC(C)(C)C)C(NC(=O)C(CCCCNC(=O)OC(C)(C)C)NC(=O)C(Cc1c[nH]c2ccccc12)NC(=O)C(N)Cc1ccccc1)C(=O)NC(Cc1ccccc1)C(=O)NC1(C(=O)O)CCCC1 (centres undefined) (H-FWK(Boc)T(tBu)F[Ac5c]-OH; configuration not given here)
inactive: NCI-H226 > 100 µM | TK-10 > 100 µM | MDA-N > 100 µM | SN12C > 100 µM | 786-0 > 100 µM | EKVX > 100 µM | U-251 > 100 µM | SK-MEL-2 > 100 µM | T47D 79.4 µM | SNB-19 > 100 µM | SF-539 > 100 µM | UO-31 > 100 µM | HCC 2998 > 100 µM | ACHN > 100 µM | UACC-62 > 100 µM | MDA-MB-435 > 100 µM | MOLT-4 > 100 µM | Hs-578T > 100 µM | SW-620 > 100 µM

Cc1ccc(NC(=O)CCc2nnc(N)o2)cc1
inactive: NCI-H226 > 100 µM | TK-10 > 100 µM | SN12C > 100 µM | 786-0 > 100 µM | EKVX > 100 µM | U-251 > 100 µM | SK-MEL-2 > 100 µM | SNB-19 > 100 µM | SF-539 > 100 µM | UO-31 > 100 µM | HCC 2998 > 100 µM | ACHN > 100 µM | UACC-62 > 100 µM | MOLT-4 > 100 µM | SW-620 > 100 µM

CC(C)N(C(=O)C12C3C4C1C1C4(C#N)C3C12C(=O)O)C(C)C (centres undefined)
inactive: NCI-H226 > 100 µM | TK-10 > 100 µM | SN12C > 100 µM | 786-0 > 100 µM | EKVX > 100 µM | U-251 > 100 µM | SK-MEL-2 > 100 µM | SNB-19 > 100 µM | SF-539 > 100 µM | UO-31 > 100 µM | HCC 2998 > 100 µM | ACHN > 100 µM | UACC-62 > 100 µM | MOLT-4 > 100 µM | SW-620 > 60.3 µM

Cc1cc(C)nc(NS(=O)(=O)c2ccc(Nc3c4ccccc4nc4c(C(=O)N5CCN(CCO)CC5)cccc34)cc2)n1
inactive: NCI-H226 > 100 µM | TK-10 > 100 µM | SN12C > 100 µM | 786-0 > 100 µM | EKVX > 100 µM | U-251 > 100 µM | SK-MEL-2 > 100 µM | SNB-19 > 100 µM | SF-539 > 100 µM | UO-31 > 100 µM | HCC 2998 > 100 µM | ACHN > 100 µM | UACC-62 > 100 µM | MOLT-4 > 100 µM | SW-620 > 100 µM

CCOC(=O)C1=C(O)C(=O)c2cc(OC)ccc2C1=O
inactive: NCI-H226 38.5 µM | TK-10 > 100 µM | SN12C > 100 µM | 786-0 > 100 µM | EKVX > 100 µM | U-251 > 100 µM | SK-MEL-2 > 100 µM | SNB-19 38.9 µM | SF-539 65.9 µM | UO-31 63 µM | HCC 2998 > 100 µM | ACHN > 100 µM | UACC-62 > 100 µM | MOLT-4 > 100 µM | SW-620 > 100 µM

COc1cc2c3c(c1OC)C(=O)C=C3N(S(=O)(=O)c1ccc(C)cc1)CC2
inactive: NCI-H226 > 100 µM | TK-10 > 100 µM | SN12C > 100 µM | 786-0 21.3 µM | EKVX > 100 µM | U-251 84.5 µM | SK-MEL-2 > 100 µM | SNB-19 > 100 µM | SF-539 52.7 µM | UO-31 > 100 µM | HCC 2998 > 100 µM | ACHN 75.9 µM | UACC-62 > 100 µM | MOLT-4 > 100 µM | SW-620 > 100 µM
